Here are results for 25 molecules from US20120302573A1, “METHODS OF INHIBITING PRO MATRIX METALLOPROTEINASE ACTIVATION” (priority 2011, published 2012).

Where a name gives a salt, the structure may show the parent alone.

One may read the Kd as the constant that tells how readily two partners part at equilibrium. Read a low Kd as higher affinity.

Assay [1] addresses T1, proMMP9(20-445;ΔFnII) (SEQ ID NO:6) (Homo sapiens, UniProt P14780, DEL216-390).
T1 construct: amino acid pairs including: 29-215/391-444, 67-215/391-444, and 20-215/391-445, respectively; start methionine (N); made in house; host or cells: E. coli BL21(DE3) RIL
T1 sequence (P14780 with tags, fused parts or gaps DEL216-390): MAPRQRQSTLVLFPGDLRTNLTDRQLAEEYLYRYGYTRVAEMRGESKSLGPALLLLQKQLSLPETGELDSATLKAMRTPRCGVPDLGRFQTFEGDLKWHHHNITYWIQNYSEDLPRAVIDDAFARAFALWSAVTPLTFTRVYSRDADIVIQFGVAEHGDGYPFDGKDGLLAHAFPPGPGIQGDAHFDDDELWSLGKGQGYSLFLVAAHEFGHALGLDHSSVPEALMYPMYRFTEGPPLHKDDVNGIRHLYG
Briefly: ThermoFluor binding assay with proMMP9(20-445;ΔFnII). The method, then: (§1) The experiments were carried out using instruments available from Johnson & Johnson Pharmaceutical Research & Development, LLC. TF dye used in all experiments was […] (1,8-ANS) (Invitrogen: A-47).
(§2) Columns 12 and 24 were used as DMSO reference and contained no compound. […] Following compound dispense, protein and dye solutions were added to achieve the final assay volume of 3 μL.
(§3) Assay plates were robotically loaded onto a thermostatically controlled PCR-type thermal block and then heated from 40 to 90° C. at a ramp-rate of 1° C./min for all experiments. Fluorescence was measured by continuous illumination with UV light (Hamamatsu LC6) supplied via fiber optics and filtered through a band-pass filter (380-400 nm; >6 OD cutoff). Fluorescence emission of the entire 384-well plate was detected by measuring light intensity using a CCD camera (Sensys, Roper Scientific) filtered to detect 500±25 nm, resulting in simultaneous and independent readings of all 384 wells.
(§4) Thermodynamic parameters necessary for fitting compound binding for each proMMP were estimated by differential scanning calorimetry (DSC) and from ThermoFluor® data. The heat capacity of unfolding for each protein was estimated from the molecular weight and from ThermoFluor® dosing data.
The protein sample preparations included a desalting buffer exchange step via a PD-10 gravity column (GE Healthcare).
In general terms: DSF heats the sample and reads unfolding from a dye or from intrinsic fluorescence.

Assay [2] deals with T2, proMMP9(67-444;ΔFnII) (SEQ ID NO:5) (Homo sapiens, UniProt P14780, DEL216-390).
T2 construct: amino acid pairs including: 29-215/391-444, 67-215/391-444, and 20-215/391-445, respectively; start methionine (N); made in house; host or cells: E. coli BL21(DE3) RIL
T2 sequence (P14780 with tags, fused parts or gaps DEL216-390): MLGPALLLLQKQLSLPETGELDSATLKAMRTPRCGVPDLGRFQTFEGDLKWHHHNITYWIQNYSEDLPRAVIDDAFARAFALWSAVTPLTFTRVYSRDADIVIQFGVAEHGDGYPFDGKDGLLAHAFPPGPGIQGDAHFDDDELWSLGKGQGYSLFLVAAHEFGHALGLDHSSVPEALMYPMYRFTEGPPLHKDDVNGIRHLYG
Briefly: ThermoFluor binding assay with proMMP9(67-444;ΔFnII). As for the experimental part:
as §1, §2, §3, §4
The protein sample preparations had to include a desalting buffer exchange step via a PD-10 gravity column (GE Healthcare).

The target of assay [3] is full-length proMMP9(1-707) activation by catalytic MMP3 (Homo sapiens, UniProt P14780, R574P). The assay is described as follows: ProMMP9/MMP3 DQ Gelatin Activation Assay.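 Note: readout is fluorescence of quenched fluorescein gelatin cut by activated MMP9, 30 min activation at 37 °C, inhibition relative to DMSO-only controls with EDTA as blank.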 The assay is classed as biochemical. Details: made in house; host or cells: COS-1 (proMMP9); E. coli (MMP3). The note with it: proMMP9 from COS-1 cells; read-out: ProMMP9/MMP3 DQ gel, IC50.
full-length proMMP9(1-707) activation by catalytic MMP3, sequence (P14780 20-707 R574P): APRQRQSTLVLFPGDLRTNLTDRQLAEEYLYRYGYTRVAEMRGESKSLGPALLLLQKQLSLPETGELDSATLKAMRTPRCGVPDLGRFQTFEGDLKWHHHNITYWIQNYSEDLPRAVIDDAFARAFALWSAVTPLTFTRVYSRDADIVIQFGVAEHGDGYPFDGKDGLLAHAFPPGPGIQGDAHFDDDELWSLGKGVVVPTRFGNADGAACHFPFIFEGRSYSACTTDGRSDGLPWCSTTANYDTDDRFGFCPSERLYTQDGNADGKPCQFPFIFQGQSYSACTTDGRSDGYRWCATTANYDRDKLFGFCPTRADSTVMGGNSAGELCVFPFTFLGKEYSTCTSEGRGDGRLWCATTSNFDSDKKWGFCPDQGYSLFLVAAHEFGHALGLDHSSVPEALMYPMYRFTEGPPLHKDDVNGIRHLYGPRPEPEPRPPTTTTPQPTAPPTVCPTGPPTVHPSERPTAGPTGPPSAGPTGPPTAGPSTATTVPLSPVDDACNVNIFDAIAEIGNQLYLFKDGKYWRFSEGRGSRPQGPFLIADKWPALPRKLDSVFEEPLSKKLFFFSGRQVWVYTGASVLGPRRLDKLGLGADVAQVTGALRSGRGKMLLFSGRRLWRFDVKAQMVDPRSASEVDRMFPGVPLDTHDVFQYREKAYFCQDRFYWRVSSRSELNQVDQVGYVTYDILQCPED

As for `Cc1nc(C)c(-c2csc(Nc3cccc(C(N)=O)c3)n2)s1` [Example 9, 3-(2′,4′-Dimethyl-[4,5′]bithiazolyl-2-ylamino)-benzamide], the Kd was 19 µM in assay [1] and > 81 µM in assay [2].
For `CC(=O)Nc1nc(C)c(-c2csc(Nc3ccccc3OCC3CC3)n2)s1` [Example 19, N-[2-(2-Cyclopropylmethoxy-phenylamino)-4′-methyl-[4,5′]bithiazolyl-2′-yl]-acetamide.TFA] the same measures were > 52 µM and 3.86 µM.
On to `COc1ccc(Nc2nc(-c3sc(NC(C)=O)nc3C)cs2)c(OC)c1` [Example 23, N-[2-(2,4-Dimethoxy-phenylamino)-4′-methyl-[4,5′]bithiazolyl-2′-yl]-acetamide.TFA], for which the figures for the Kd in assay [1] and in assay [2] were > 35 µM and 5.53 µM, respectively. Also, in assay [3], the IC50 is 26.2 µM.
In the same order, the values of `c1cncc(-c2csc(Nc3ccccc3OCc3cccs3)n2)c1` [Example 24, (4-Pyridin-3-yl-thiazol-2-yl)-[2-(thiophen-2-ylmethoxy)-phenyl]-amine.TFA] are 0.37 µM, > 38 µM and > 20 µM.
In the same order, the values of `CCCOc1ccccc1Nc1nc(-c2cccnc2)cs1` [Example 25, (2-Propoxy-phenyl)-(4-pyridin-3-yl-thiazol-2-yl)-amine] are 12.5 µM, 16.3 µM and > 20 µM.
Turning to `COc1ccccc1Nc1nc(-c2cnccc2C)cs1` [Example 29, (2-Methoxy-phenyl)-[4-(4-methyl-pyridin-3-yl)-thiazol-2-yl]-amine.TFA], the IC50 in assay [3] amounted to 14.4 µM.
Take `CC(=O)Nc1nc(C)c(-c2csc(Nc3ccccc3OC(F)(F)F)n2)s1` [Example 31, N-[4′-Methyl-2-(2-trifluoromethoxy-phenylamino)-[4,5′]bithiazolyl-2′-yl]-acetamide.HCl]: the Kd was 3.34 µM in assay [1] and 0.645 µM in assay [2]. Further, the IC50 in assay [3] is 3.3 µM.
In the same order, the values of `CC(=O)Nc1nc(C)c(-c2csc(Nc3ccccc3C(F)(F)F)n2)s1` [Example 32, N-[4′-Methyl-2-(2-trifluoromethyl-phenylamino)-[4,5′]bithiazolyl-2′-yl]-acetamide.TFA] are > 9.2 µM, 9.06 µM and > 20 µM.
In the same order, the values of `CSc1ccccc1Nc1nc(-c2sc(NC(C)=O)nc2C)cs1` [Example 33, N-[4′-Methyl-2-(2-methylsulfanyl-phenylamino)-[4,5′]bithiazolyl-2′-yl]-acetamide.HCl] are 3.75 µM, 0.695 µM and 2.9 µM.
In the same order, the values of `CNc1nc(C)c(-c2csc(Nc3ccccc3OC)n2)s1` [Example 35, N^2-(2-Methoxy-phenyl)-4′,N^2′-dimethyl-[4,5′]bithiazolyl-2,2′-diamine] are 10.3 µM, 3.92 µM and 7 µM.
Regarding `COc1ccccc1Nc1nc(-c2sc(N(C)C(C)=O)nc2C)cs1` [Example 36, N-[2-(2-Methoxy-phenylamino)-4′-methyl-[4,5′]bithiazolyl-2′-yl]-N-methyl-acetamide.TFA], the Kd in assay [1] and in assay [2] was > 11 µM each time. Further, in assay [3], the IC50 came to 1.7 µM.
As to `CCNc1nc(C)c(-c2csc(Nc3ccccc3OC)n2)s1` [Example 38], the Kd in assay [1] and in assay [2] was > 8.3 µM each time. Moreover, the IC50 in assay [3] was 9.6 µM.
Turning to `CC(=O)Nc1nc(C)c(-c2csc(Nc3ccccc3Cl)n2)s1` [Example 39, N-[2-(2-Chloro-phenylamino)-4′-methyl-[4,5′]bithiazolyl-2′-yl]-acetamide.HCl], the values for the Kd in assay [1] and in assay [2] were 6.35 µM and 2.49 µM, respectively. The IC50 in assay [3] was found to be 17.1 µM.
In the same order, the values of `CC(=O)Nc1nc(C)c(-c2csc(Nc3ccccc3F)n2)s1` [Example 40, N-[2-(2-Fluoro-phenylamino)-4′-methyl-[4,5′]bithiazolyl-2′-yl]acetamide.TFA] are > 18 µM, 16.3 µM and > 20 µM.
For the molecule `COc1ccc(Nc2nc(-c3sc(N)nc3C)cs2)c(OC)c1` [Example 48, N^2-(2,4-Dimethoxy-phenyl)-4′-methyl-[4,5′]bithiazolyl-2,2′-diamine], the results for the dissociation constant (Kd) in assay [1] and in assay [2] were 17.5 µM and 4.73 µM, respectively.
Take `COc1ccccc1Nc1nc(C2(C)CC3(CC(C)OC3=O)C(=O)O2)cs1` (stereo not shown) [Example 49, 3-[2-(2-Methoxy-phenylamino)-thiazol-4-yl]-3,8-dimethyl-2,7-dioxa-spiro[4.4]nonane-1,6-dione]: the Kd in assay [1] was > 17 µM; in assay [2], 8.7 µM. For the same molecule, the IC50 in assay [3] was determined as 5.7 µM.
For `COc1ccccc1Nc1nc(-c2sc(NC(=O)c3ccccc3)nc2C)cs1` [Example 50, N-[2-(2-Methoxy-phenylamino)-4′-methyl-[4,5′]bithiazolyl-2′-yl]-benzamide] the same measures were > 14 µM, 4.05 µM and 21.2 µM.
Consider `COc1ccc(OC)c(Nc2nc(-c3c(C)nc4ccccn34)cs2)c1` [Example 51, (2,5-Dimethoxy-phenyl)-[4-(2-methyl-imidazo[1,2-a]pyridin-3-yl)-thiazol-2-yl]-amine], for which the Kd is > 16 µM in assay [1] and > 15 µM in assay [2]. In assay [3], the IC50 was 10.1 µM.
In the same order, the values of `COc1ccc(OC)c(Nc2nc(-c3cccnc3)cs2)c1` [Example 54, (2,5-Dimethoxy-phenyl)-(4-pyridin-3-yl-thiazol-2-yl)-amine] are > 65 µM, 17.9 µM and 16.1 µM.
Take `COc1ccc(Cl)cc1Nc1nc(-c2cccnc2)cs1` [Example 56, (5-Chloro-2-methoxy-phenyl)-(4-pyridin-3-yl-thiazol-2-yl)-amine]: the dissociation constant Kd was > 70 µM in assay [1] and 14.6 µM in assay [2]. The IC50 in assay [3] was > 20 µM.
In the same order, the values of `CC(=O)Nc1nc(C)c(-c2csc(Nc3ccccc3C)n2)s1` [Example 63, N-(4′-Methyl-2-o-tolylamino-[4,5′]bithiazolyl-2′-yl)-acetamide] are 19.6 µM, 5.13 µM and 28.2 µM.
For `CCOc1ccccc1Nc1nc(-c2sc(NC(C)=O)nc2C)cs1` [Example 66, N-[2-(2-Ethoxy-phenylamino)-4′-methyl-[4,5′]bithiazolyl-2′-yl]-acetamide] the same measures were > 6.1 µM, > 6.1 µM and 1.9 µM.
For `COc1ccccc1Nc1nc(C2(C)CC3(CC(C)(C)OC3=O)C(=O)O2)cs1` (stereo not shown) [Example 69, 3-[2-(2-Methoxy-phenylamino)-thiazol-4-yl]-3,8,8-trimethyl-2,7-dioxa-spiro[4.4]nonane-1,6-dione], the Kd in assay [1] and in assay [2] was > 15 µM each time. Further, the IC50 in assay [3] stood at 11.2 µM.
For `CCOc1ccccc1Nc1nc(-c2cnc3ncccn23)cs1` [Example 71, (2-Ethoxy-phenyl)-(4-imidazo[1,2-a]pyrimidin-3-yl-thiazol-2-yl)-amine], the Kd in assay [1] came out at 11.7 µM; in assay [2], 6.56 µM. In assay [3], the IC50 turned out to be 6.9 µM.
Regarding “(5-Chloro-2-methoxy-phenyl)-(4-imidazo[1,2-a]pyrazin-3-yl-thiazol-2-yl)-amine [Example 72]”, the figures for the Kd in assay [1] and in assay [2] were 6.53 µM and > 58 µM, respectively. In addition, in assay [3], the IC50 was determined as 3.1 µM.
